# Test results as given in patent US11197846B2, “Methods and compositions for treating cannabis use disorder and mitigating cannabinoid withdrawal” (Pleopharma, L.L.C., priority 2020, dated 2021).
# Entries after “also recorded” stand apart in the source; their conditions may differ.
# Key:
# [1] = Plasma pharmacokinetics of nabilone and gabapentin after oral PP-01 once daily for four doses (LC-MS/MS), Example 1 clinical study; details: for AUC(0-t) / AUC(0-inf) / Cmax / Tmax / half-life: human, plasma, oral; for AUC(0-inf): AUC0-∞; for Pharmacokinetics compared with historical controls: nabilone and gabapentin given together as PP-01
# Description: A total of 14 eligible healthy volunteers with moderate to severe CUD and no contraindications to nabilone or gabapentin were randomized to receive PP-01 (nabilone and gabapentin; Test) or Placebo, in a 1:1 ratio, from a randomization table at the start of Period 1 (Day −1). If participants received PP-01 in Period 1, they received Placebo in Period 2; similarly, if participants received Placebo in Period 1, they received PP-01 in Period 2. Participants received oral doses of PP-01 or Placebo approximately 2 hours before a standardized meal on the morning on the second day of each inpatient admission (Day 1, Periods 1 and 2) and continued to receive once-daily dosing in the morning for a total of four doses per period.
# On Day 1, the 0-hour PK blood draw was obtained within 30 minutes prior to the first dose of study drug which was administered by the Investigator (or a staff member as delegated by the Investigator) at approximately 120 minutes prior to the morning standardized breakfast. Venous blood samples of approximately 10 mL each were obtained at the following times following the Day 1 dose to assess nabilone and gabapentin concentrations: 30 and 60 minutes, and 2, 3, and 4 hours (within ±5 minutes of each time point), and 6, 8, 12, and 24 hours (within ±10 minutes of each time point) after study drug administration. The CWS was completed by participants prior to dosing (Baseline) and at 4- and 10-hours post-dose and the sleep questionnaire was completed in the morning prior to dosing. Blood samples to assess serum cortisol were obtained in the evening. Routine safety assessments were performed as scheduled.
# On Day 4, the 0-hour PK blood draw was obtained within 30 minutes prior to the dosing of study drug, which was administered by the Investigator (or a staff member as delegated by the Investigator) at approximately 120 minutes prior to the morning standardized breakfast. Venous blood samples of approximately 10 mL each were obtained at the following times following the Day 4 dose to assess nabilone and gabapentin concentrations: 30 and 60 minutes, and 2, 3, and 4 hours (within ±5 minutes of each time point), and 6, 8, 12, and 24 hours (within ±10 minutes of each time point) after study drug administration. The CWS was completed by participants prior to dosing and at 4- and 10-hours post-dose and the sleep questionnaire was completed in the morning prior to dosing; the PGI-S and CGI were completed approximately 4 hours after dosing. Blood samples to assess serum cortisol were obtained in the evening. Routine safety assessments were performed as scheduled.
# The following PK assessments were assessed in Periods 1 and 2 on Day 1, Day 2 (trough), Day 4, Day 5 (trough), and Day 8 for nabilone and gabapentin. Baseline concentrations were defined as the 0-minute time point (within 30 minutes of dosing) on Day 1 (Periods 1 and 2). • Area under the plasma concentration-time curve from 0 to the last measurable concentration (AUC0-t) • Area under the plasma concentration-time curve extrapolated to infinity (AUC0-∞) • Peak (maximum) plasma concentration of the drug (Cmax) • Time to peak (maximum) plasma concentration (tmax) • Elimination half-life (t1/2)
# Venous blood samples of 10 ml each were collected with K2EDTA anticoagulant for Baseline levels of Δ-9-THC, 11-OHTHC and THC-COOH on Day −1 (Periods 1 and 2). For Periods 1 and 2, levels of nabilone and gabapentin were assessed following the time points listed in Table 2 following the first and fourth dose. Study participants returned on Day 8 (Periods 1 and 2) to have PK samples drawn to help determine the terminal half-life of nabilone. The Baseline (0-hour) time point was collected within 30 minutes prior to dosing.
# Baseline concentrations of Δ-9-THC, 11-OHTHC and THC-COOH were determined using a validated liquid chromatographic-tandem mass spectroscopy (LC-MS/MS) assay with a lower limit of quantification (LLOQ) of 0.200 ng/mL.
# [2] = pH values ranging from 1.2 to 7.0; cited from earlier work
# [3] = reported; cited from earlier work
# GABA receptors = details: concentrations at or below 1 millimolar; cited from earlier work
# [4] = 6 mg, nabilone 6 mg, Days 1-2, both sequences, arithmetic mean
# [5] = 6 mg, nabilone 6 mg, Days 4-5, both sequences, arithmetic mean
# [6] = 600 mg, gabapentin 600 mg, Sequence AB, Days 1-2, arithmetic mean
# [7] = 600 mg, gabapentin 600 mg, Sequence AB, Days 4-5, arithmetic mean
# [8] = 600 mg, gabapentin 600 mg, Sequence BA, Days 1-2, arithmetic mean
# [9] = 600 mg, gabapentin 600 mg, Sequence BA, Days 4-5, arithmetic mean
smiles,measurement,setting,value
"CCCCCCC(C)(C)c1cc(O)c2c(c1)OC(C)(C)C1CCC(=O)CC21 (racemic) [Nabilone, (±)-trans-3-(1,1-dimethylheptyl)-6,6a,7,8,10,10a-hexahydro-1-hydroxy-6-6-dimethyl-9H-dibenzo[b,d]pyran-9-one]",AUC(0-t),"[1]; 6 mg, AUC0-24, nabilone 6 mg, Days 1-2, both sequences, arithmetic mean",34.1 ng·h/mL
same,AUC(0-t),"[1]; 6 mg, AUC0-24, nabilone 6 mg, Days 4-5, both sequences, arithmetic mean",33.9 ng·h/mL
same,AUC(0-inf),[1]; [4],35.8 ng·h/mL
same,AUC(0-inf),[1]; [5],37.4 ng·h/mL
same,Cmax,[1]; [4],8.51 ng/mL
same,Cmax,[1]; [5],8.59 ng/mL
same,Tmax,"[1]; 6 mg, Tmax, nabilone 6 mg, Days 1-2, both sequences, PK population, arithmetic mean ± SD",2.5 ± 1.5 h
same,Tmax,"[1]; 6 mg, Tmax, nabilone 6 mg, Days 4-5, both sequences, arithmetic mean ± SD",2.3 ± 0.9 h
same,half-life,"[1]; 6 mg, t1/2, nabilone 6 mg, Days 1-2, both sequences, arithmetic mean ± SD",6.4 ± 1.7 h
same,half-life,"[1]; 6 mg, t1/2, nabilone 6 mg, Days 4-5, both sequences, arithmetic mean ± SD",9.9 ± 2.5 h
same,Tmax,"[1]; mean time to maximal concentration (Tmax), nabilone",~2.5 h
same,Pharmacokinetics compared with historical controls,[1],consistent with historical controls
same,accumulation over the period studied,"[1]; nabilone, Days 1 to 2 vs Days 4 to 5",no accumulation occurred; also recorded: minimal accumulation
same,solubility in aqueous media,[2],less than 0.5 mg/L
"CCCCCc1cc(O)c2c(c1)OC(C)(C)[C@@H]1CCC(CO)=C[C@@H]21 [11-OH-delta-9-THC, 11-hydroxy-delta-9-tetrahydrocannabinol]",agonist potency relative to delta-9-THC,[3],more potent agonist than delta-9-THC
"NCC1(CC(=O)O)CCCCC1 [Gabapentin, 1-(aminomethyl)cyclohexaneacetic acid]",t1/2,"[1]; gabapentin 600 mg, Sequence BA, Days 1-2, arithmetic mean",5.3 h
same,"exposure metrics (Cmax, AUC0-24, AUC0-∞) over time","[1]; gabapentin, Days 4 to 5 vs Days 1 to 2",exposure slightly increased at Days 4 to 5 compared to Days 1 to 2
same,AUC(0-t),"[1]; 600 mg, AUC0-24, gabapentin 600 mg, Sequence AB, Days 1-2, arithmetic mean",65700 ng·h/mL
same,AUC(0-t),"[1]; 600 mg, AUC0-24, gabapentin 600 mg, Sequence AB, Days 4-5, arithmetic mean",70500 ng·h/mL
same,AUC(0-t),"[1]; 600 mg, AUC0-24, gabapentin 600 mg, Sequence BA, Days 1-2, arithmetic mean",53600 ng·h/mL
same,AUC(0-t),"[1]; 600 mg, AUC0-24, gabapentin 600 mg, Sequence BA, Days 4-5, arithmetic mean",58100 ng·h/mL
same,AUC(0-inf),[1]; [6],70000 ng·h/mL
same,AUC(0-inf),[1]; [7],74900 ng·h/mL
same,AUC(0-inf),[1]; [8],57200 ng·h/mL
same,AUC(0-inf),[1]; [9],63100 ng·h/mL
same,Cmax,[1]; [6],6080 ng/mL
same,Cmax,[1]; [7],7010 ng/mL
same,Cmax,[1]; [8],5170 ng/mL
same,Cmax,[1]; [9],5510 ng/mL
same,Tmax,"[1]; 600 mg, Tmax, gabapentin 600 mg, Sequence AB, Days 1-2, arithmetic mean ± SD",3.7 ± 1.1 h
same,Tmax,"[1]; 600 mg, Tmax, gabapentin 600 mg, Sequence AB, Days 4-5, arithmetic mean ± SD",3.3 ± 0.8 h
same,Tmax,"[1]; 600 mg, Tmax, gabapentin 600 mg, Sequence BA, Days 1-2, arithmetic mean ± SD",3.7 ± 0.5 h
same,Tmax,"[1]; 600 mg, Tmax, gabapentin 600 mg, Sequence BA, Days 4-5, arithmetic mean ± SD",1 ± 1.1 h
same,half-life,"[1]; 600 mg, t1/2, gabapentin 600 mg, Sequence AB, Days 1-2, arithmetic mean",5.4 h
same,half-life,"[1]; 600 mg, t1/2, gabapentin 600 mg, Sequence AB, Days 4-5, arithmetic mean",5.5 h
same,half-life,"[1]; 600 mg, t1/2, gabapentin 600 mg, Sequence BA, Days 4-5, arithmetic mean",6.3 h
same,AUC(0-t),"[1]; AUC0-24, gabapentin, range across days and sequences",53600 to 70500 ng·h/mL
same,Tmax,"[1]; mean Tmax, gabapentin, across days and sequences",3.3 to 4 h
same,half-life,"[1]; mean t1/2, gabapentin, range across treatment (days, sequence)",5.3 to 6.3 h
same,Pharmacokinetics compared with historical controls,[1],consistent with historical controls
same,binding to GABA receptors,GABA receptors,has not been shown to bind to GABA receptors
